From patent US20220305003A1, “METHODS OF TREATING CANCER WITH AN INHIBITOR OF ZNF827” (CHILDREN'S MEDICAL RESEARCH INSTITUTE, priority 2019, published 2022) come the findings set out here.

One data set concerns ATR-CHK1 pathway. The experiment in a line: Western blot of pCHK1, pRPA32 and p21 after ZNF827 knockdown, topotecan and/or ATR inhibitor. Format: cell-based. The protocol: Protein was extracted from 10^6 cells per sample by vigorous pipetting and incubation at room temperature for 30 minutes in 100 μL of EDTA-free 4× LDS buffer (106 mM Tris-Cl, 141 mM Tris-Base, 40% Glycerol, 2% LDS, 0.075% SERVA Blue G50) supplemented with 2.5% Benzonase® nuclease 25 U/μL (Novagen, Merck Millipore) and 2% beta-mercaptoethanol (Sigma). Following protein extraction, all samples were denatured at 90° C. for 15 minutes before resolving on NuPAGE® Novex® 4-12% Bis-Tris Mini Gels (Invitrogen) with 1×10^5 cells (10 μL) loaded per lane in NuPAGE® MES SDS running buffer (Invitrogen) at 200 V for 50 minutes. Gels were transferred onto a PVDF membrane (Immobilon-P, Millipore) in transfer buffer (190 mM glycine, 25 mM Tris and 10% methanol) at 100 V for 60 minutes. Membranes were stained with Ponceau-S for 30 minutes, de-stained then blocked for 1 hour at room temperature in 5% skim milk dissolved in PBS with 0.1% Tween-20 (PBST) or TBS with 0.1% Tween-20 (TBST) for phosphorylated proteins. Membranes were cut into appropriate segments based on the size markers, with each segment incubated with antibodies for proteins of interest diluted in 0.5% skim milk in PBST/TBST or 5% BSA overnight at 4° C. (Refer to Table 4 for the list of antibodies). Blots were then washed for 3×5 minutes in PBST/TBST followed by incubation for 1 hour at room temperature with appropriate secondary antibodies (See Table 5) diluted 1:5000 in 0.5% skim milk or 5% BSA in PBST/TBST. Blots were washed for 3×5 minutes in PBST/TBST before incubation with SuperSignal West Pico Chemiluminescent Substrate (ThermoFisher Scientific) for 5 minutes at room temperature. Blots were then exposed to a Luminescent Image Analyser (LAS-4000, Fujifilm).
Background: A western blot detects proteins with antibodies after separation by electrophoresis.

Data set [1] has as its target T1, ZNF827 SUMOylation mutant (Homo sapiens, UniProt Q17R98 SEQ:4-1079).
T1 chain: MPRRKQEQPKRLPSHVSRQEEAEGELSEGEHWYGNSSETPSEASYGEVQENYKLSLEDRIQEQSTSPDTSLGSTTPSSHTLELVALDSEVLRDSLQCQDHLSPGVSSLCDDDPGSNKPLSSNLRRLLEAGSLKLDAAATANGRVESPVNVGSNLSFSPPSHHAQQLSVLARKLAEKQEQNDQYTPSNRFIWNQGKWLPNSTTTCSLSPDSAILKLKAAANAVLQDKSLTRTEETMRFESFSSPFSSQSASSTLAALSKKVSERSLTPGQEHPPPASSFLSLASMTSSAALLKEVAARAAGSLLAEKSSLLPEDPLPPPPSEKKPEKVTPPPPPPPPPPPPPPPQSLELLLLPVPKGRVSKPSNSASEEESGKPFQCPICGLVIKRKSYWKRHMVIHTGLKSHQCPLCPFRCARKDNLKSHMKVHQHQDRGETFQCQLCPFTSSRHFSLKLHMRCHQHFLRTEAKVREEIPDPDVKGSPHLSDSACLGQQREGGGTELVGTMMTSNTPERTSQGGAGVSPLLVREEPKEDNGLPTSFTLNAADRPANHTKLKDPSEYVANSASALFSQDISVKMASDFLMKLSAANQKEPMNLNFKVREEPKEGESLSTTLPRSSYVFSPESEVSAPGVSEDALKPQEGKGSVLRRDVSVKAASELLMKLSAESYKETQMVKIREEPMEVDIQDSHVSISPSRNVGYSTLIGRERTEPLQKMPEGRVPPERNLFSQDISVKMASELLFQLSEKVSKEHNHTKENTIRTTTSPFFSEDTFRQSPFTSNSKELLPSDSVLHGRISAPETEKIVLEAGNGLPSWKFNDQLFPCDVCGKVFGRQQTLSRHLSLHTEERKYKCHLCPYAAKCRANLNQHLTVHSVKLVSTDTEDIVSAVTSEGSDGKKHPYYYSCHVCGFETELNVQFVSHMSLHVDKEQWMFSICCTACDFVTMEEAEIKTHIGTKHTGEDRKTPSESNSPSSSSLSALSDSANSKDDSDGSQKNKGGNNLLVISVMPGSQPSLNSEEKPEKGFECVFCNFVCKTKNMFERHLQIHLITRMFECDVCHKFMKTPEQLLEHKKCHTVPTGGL
Kind of data set: EMSA; positive control; 0.8 mM ZnCl2, 100 mM KCl, poly(dI:dC), on ice. Conditions: tags: HaloTag (pHTN), expressed in HEK 293T, tag removed by HaloTEV cleavage; label: 32P (gamma). The protocol:
Purified proteins were quantified using a BCA assay using the Pierce™ BCA Protein Assay Kit according to the manufacturer's instructions. Equal amounts of purified proteins were incubated in binding buffer (20 mM HEPES-KOH, pH7.9, 100 mM KCl, 0.8 mM ZnCl₂, 0.2 mM EDTA, 5% glycerol, 0.5 mM DTT and 0.5 mM PMSF) with 6.25 μg/mL poly (dI:dC) and 50 ng/μL BSA on ice for 20 minutes. ˜0.12 nM (˜2.5 fmol) γ-³²P labelled DNA oligonucleotide (see Table 3) probes were added to samples and incubated on ice for another 30 minutes. Binding reactions were loaded onto an 8% native acrylamide/bisacrylamide (19:1, Biorad) gel pre-run at 100V in 0.5× TB buffer (89 mM Tris, 89 mM boric acid) for 20 minutes. Gels were electrophoresed at 150 V for 150 minutes at 4° C., dried at 65° C. for 45 minutes, and then exposed to a Phosphor screen overnight. Gel images were obtained by scanning the screens with a Typhoon FLA9500 Imager (GE Life Sciences).
To identify which zinc fingers are required for DNA binding activity, zinc finger mutants with either one or both zinc finger clusters deleted were also generated and purified (FIG. 1). Purified proteins were validated by HaloTag® TMR ligand detection and western blot analysis. Mass spectrometry (MS) analysis also confirmed the specificity of the HaloTag protein purification method. […]

In the case of “siZNF827: Stealth RNAi siRNA ZNF827HSS135819 duplex oligoribonucleotides (Invitrogen), SEQ ID NO: 12 and 13 (chain 1 GGGCAGUCUUCUGGCUGAGAAAUCA; chain 2 UGAUUUCUCAGCCAGAAGACUGCCC; listed as RNA, further chemistry not given here)”, the “phosphorylation of CHK1 S345 and RPA32 S33 compared with ATR inhibitors” value with ATR-CHK1 pathway (ZNF827 knockdown versus ATR inhibitors VE-821 and AZ20) is “greater reduction in phosphorylation of CHK1 S345 and RPA32 S33 than ATR inhibitors”. For the same molecule, in the data set on ATR-CHK1 pathway (ZNF827 knockdown, topotecan treatment), the “phosphorylation of CHK1 S345 and RPA S33” value is given as “substantially suppressed”. In addition, in the data set with ATR-CHK1 pathway (unchallenged ZNF827-depleted cells, compared with topotecan-treated cells), the p21 level entry is reported as “upregulated”.

In the case of TTAGGGTTAGGGTTAGGG (ssDNA) [ss telomeric G rich oligo], in data set [1], the binding result is “binds”.
